Key:
Type in all cases: in vivo
Lindemia pyxidaria = assay: Test Example 2: herbicidal effect test by application during growth period of paddy rice; details: 7 days after sowing, 120 g per 10 ares, 14 days after application, read-out: weed inhibition rate
Protocol: (§1) Herbicidal Effect Test by Application During Growth Period of Paddy Rice
(§2) Wagner pots with an area of 1/10,000 […] were filled with paddy soil, followed by addition of water and incorporation of chemical fertilizer (N:P:K=16:16:16), after which puddling was performed. After that, seeds of Echinochloa crus-galli var. formosensis, broad-leaved weeds (Lindemia pyxidaria, and Monochoria vaginalis), and Scirpus juncoides were sown at a depth of 0 cm to 1 cm, 30 seeds each. Immediately after sowing, the pots were flooded and a water depth of approximately 3 cm was maintained. Subsequent management was conducted in a glass greenhouse. Seven days after sowing, an emulsifiable concentrate prepared according to Formulation Example 5 using the compound shown below was diluted with water, and a specified amount of the diluted solution was applied by dropper. The amount of the active ingredient to be applied was equivalent to 120 g per 10 ares. The test was conducted in duplicate for each chemical concentration group, and the herbicidal effect was evaluated 14 days after chemical application using the same criteria as in Test Example 1.

[1] = test system: Echinochloa crus-galli var. formosensis; assay: Test Example 1: herbicidal effect test by soil application in paddy rice; details: 120 g per 10 ares, 14 days after application; for inhibition at 1200 g/ha: Echinochloa crus-galli, 336 h, read-out: weed inhibition rate
Protocol: (§3) Herbicidal Effect Test by Soil Application in Paddy Rice
as §2, with “(Lindernia pyxidaria” for “(Lindemia pyxidaria,”, “Immediately thereafter,” for “Seven days after sowing,”, “ares.” for “ares. The test was conducted in duplicate for each chemical concentration group, and the herbicidal effect was evaluated 14 days after chemical application using the same criteria as in Test Example 1.”
(§4) The present test was conducted in duplicate for each chemical concentration group, and the weed inhibition rate (%) was determined 14 days after chemical application using the following formula (Math. 1).

Scirpus juncoides [2] = assay: as above; details: 120 g per 10 ares, 14 days after application
Protocol: as §3
as §2, with “(Lindernia pyxidaria” for “(Lindemia pyxidaria,”, “Immediately thereafter,” for “Seven days after sowing,”, “ares.” for “ares. The test was conducted in duplicate for each chemical concentration group, and the herbicidal effect was evaluated 14 days after chemical application using the same criteria as in Test Example 1.”
as §4

[3] = test system: Echinochloa crus-galli var. formosensis; assay: Test Example 2: herbicidal effect test by application during growth period of paddy rice; details: 7 days after sowing, 120 g per 10 ares, 14 days after application; for inhibition at 1200 g/ha: Echinochloa crus-galli, read-out: weed inhibition rate
Protocol: as §1, §2

Scirpus juncoides [4] = assay: as above; details: 7 days after sowing, 120 g per 10 ares, 14 days after application
Protocol: as §1, §2

Digitaria ciliaris [5] = assay: Test Example 3: herbicidal effect test by soil application in upland field; details: 1 day after sowing, 120 g per 10 ares, 14 days after application; for inhibition at 1200 g/ha: Digitaria ciliaris, read-out: weed inhibition rate
Protocol: (§5) Herbicidal Effect Test by Soil Application in Upland Field
(§6) Pots with an area of 36 cm^2 were filled with upland soil (alluvial loam), twenty seeds each of weeds of Digitaria ciliaris, Echinochloa crus-galli, Chenopodium album, and Amaranthus viridis were uniformly mixed with the top 1 cm layer of soil and the surface was lightly pressed down. One day after sowing, an emulsifiable concentrate prepared according to Formulation Example 5 using the compound shown below was diluted with water, and the diluted solution was sprayed onto the soil surface at a rate of 100 liters per 10 ares. The amount of the active ingredient to be applied was equivalent to 120 g per 10 ares. Fourteen days after chemical application, the herbicidal effect was evaluated according to the same criteria as in Test Example 1.

Echinochloa crus-galli [6] = assay: as above; details: 1 day after sowing, 120 g per 10 ares, 14 days after application; for inhibition at 1200 g/ha: Echinochloa crus-galli, read-out: weed inhibition rate
Protocol: as §5, §6

Digitaria ciliaris [7] = assay: Test Example 4: herbicidal effect test by stem and leaf treatment in upland field; details: 7 days after sowing, 120 g per 10 ares, 14 days after application; for inhibition at 1200 g/ha: Digitaria ciliaris, read-out: weed inhibition rate
Protocol: (§7) Herbicidal Effect Test by Stem and Leaf Treatment in Upland Field
as §6, with “Seven days” for “One day”

Echinochloa crus-galli [8] = assay: as above; details: 7 days after sowing, 120 g per 10 ares, 14 days after application; for inhibition at 1200 g/ha: Echinochloa crus-galli, read-out: weed inhibition rate
Protocol: as §7
as §6, with “Seven days” for “One day”

Cc1ccccc1CO[C@@H]1C[C@]2(C(C)C)O[C@@]1(C)C[C@@H]2F [1-2, (1R,2S,4S,5R)-2-fluoro-1-isopropyl-4-methyl-5-((2-methylbenzyl)oxy)-7-oxabicyclo[2.2.1]heptane]
inhibition at 1200 g/ha (Lindemia pyxidaria): ≥ 80%

CC(C)[C@]12C[C@@H](OCc3ccccc3F)[C@](C)(C[C@@H]1Br)O2 [1-19, (1S,2R,4R,5S)-5-bromo-2-[(2-fluorophenyl)methoxy]-1-methyl-4-isopropyl-7-oxabicyclo[2.2.1]heptane]
inhibition at 1200 g/ha (Lindemia pyxidaria): ≥ 80%

CC(=O)O[C@H]1C[C@]2(C)O[C@@]1(C(C)C)C[C@H]2OCc1ccccc1F [1-480, [(1R,2S,4S,5R)-5-[(2-fluorophenyl)methoxy]-4-methyl-1-isopropyl-7-oxabicyclo[2.2.1]heptan-2-yl]acetate]
weed inhibition rate [1]: ≥ 80% | weed inhibition rate (Scirpus juncoides [2]): ≥ 80% | weed inhibition rate [3]: ≥ 80% | weed inhibition rate (Scirpus juncoides [4]): ≥ 80% | weed inhibition rate (Digitaria ciliaris [5]): ≥ 80% | weed inhibition rate (Echinochloa crus-galli [6]): ≥ 80% | weed inhibition rate (Digitaria ciliaris [7]): ≥ 80% | weed inhibition rate (Echinochloa crus-galli [8]): ≥ 80%

CC(C)=CCO[C@@H]1C[C@]2(C(C)C)O[C@@]1(C)C[C@@H]2Br [1-672, (1S,2R,4R,5S)-5-bromo-1-methyl-2-(3-methylbut-2-enoxy)-4-isopropyl-7-oxabicyclo[2.2.1]heptane]
inhibition at 1200 g/ha (Lindemia pyxidaria): ≥ 80%

CC(C)[C@]12C[C@@H](OCc3cccc(C(F)(F)F)c3)[C@](C)(C[C@@H]1Br)O2 [1-701, (1S,2R,4R,5S)-5-bromo-1-methyl-4-isopropyl-2-[[3-(trifluoromethyl)phenyl]methoxy]-7-oxabicyclo[2.2.1]heptane]
inhibition at 1200 g/ha [1]: ≥ 80% | inhibition at 1200 g/ha [3]: ≥ 80% | inhibition at 1200 g/ha (Digitaria ciliaris [5]): ≥ 80% | inhibition at 1200 g/ha (Echinochloa crus-galli [6]): ≥ 80% | inhibition at 1200 g/ha (Digitaria ciliaris [7]): ≥ 80% | inhibition at 1200 g/ha (Echinochloa crus-galli [8]): ≥ 80%

CC(C)[C@]12C[C@@H](OCc3ccccc3C#N)[C@](C)(C[C@@H]1Br)O2 [1-703, 2-[[(1S,2R,4R,5S)-5-bromo-1-methyl-4-isopropyl-7-oxabicyclo[2.2.1]heptan-2-yl]oxymethyl]benzonitrile]
inhibition at 1200 g/ha (Lindemia pyxidaria): ≥ 80%

CC(C)[C@]12C[C@@H](OCc3ccccc3F)[C@](C)(C[C@H]1OCC1CC1)O2 [1-921, (1S,2R,4R,5R)-5-(cyclopropylmethoxy)-2-[(2-fluorophenyl)methoxy]-1-methyl-4-isopropyl-7-oxabicyclo[2.2.1]heptane]
inhibition at 1200 g/ha (Lindemia pyxidaria): ≥ 80%

C=CCO[C@@H]1C[C@]2(C)O[C@@]1(C(C)C)C[C@H]2OCc1ccccc1F [1-930, (1S,2R,4R,5R)-2-[(2-fluorophenyl)methoxy]-1-methyl-4-isopropyl-5-prop-2-enoxy-7-oxabicyclo[2.2.1]heptane]
inhibition at 1200 g/ha (Lindemia pyxidaria): ≥ 80%

C#CCO[C@@H]1C[C@]2(C)O[C@@]1(C(C)C)C[C@H]2OCc1ccccc1F [1-931, (1S,2R,4R,5R)-2-[(2-fluorophenyl)methoxy]-1-methyl-4-isopropyl-5-prop-2-ynoxy-7-oxabicyclo[2.2.1]heptane]
inhibition at 1200 g/ha (Lindemia pyxidaria): ≥ 80%

COC1(OC)C[C@]2(C)O[C@@]1(C(C)C)C[C@H]2OCc1ccccc1F [1-935, (1R,4S,5R)-5-((2-fluorobenzyl)oxy)-1-isopropyl-2,2-dimethoxy-4-methyl-7-oxabicyclo[2.2.1]heptane]
inhibition at 1200 g/ha (Lindemia pyxidaria): ≥ 80%

CC(C)[C@]12C[C@@H](OCc3ccccc3F)[C@](C)(C[C@@H]1OCc1ccccc1)O2 [1-1606, (1S,2R,4R,5S)-2-[(2-fluorophenyl)methoxy]-1-methyl-5-phenylmethoxy-4-isopropyl-7-oxabicyclo[2.2.1]heptane]
inhibition at 1200 g/ha [1]: ≥ 80% | inhibition at 1200 g/ha [3]: ≥ 80% | inhibition at 1200 g/ha (Digitaria ciliaris [5]): ≥ 80% | inhibition at 1200 g/ha (Echinochloa crus-galli [6]): ≥ 80% | inhibition at 1200 g/ha (Digitaria ciliaris [7]): ≥ 80% | inhibition at 1200 g/ha (Echinochloa crus-galli [8]): ≥ 80%

Cc1ccccc1CO[C@@H]1C[C@]2(C(C)C)O[C@@]1(C)CC2=O [2-3, (1R,4S,5R)-1-isopropyl-4-methyl-5-((2-methylbenzyl)oxy)-7-oxabicyclo[2.2.1]heptan-2-one]
inhibition at 1200 g/ha (Lindemia pyxidaria): ≥ 80%

Cc1cccc(C)c1CO[C@@H]1C[C@]2(C(C)C)O[C@@]1(C)CC2=O [2-5, (1R,4S,5R)-5-((2,6-dimethylbenzyl)oxy)-1-isopropyl-4-methyl-7-oxabicyclo[2.2.1]heptan-2-one]
inhibition at 1200 g/ha (Lindemia pyxidaria): ≥ 80%

CC(C)[C@]12C[C@@H](OCc3ccccc3Cl)[C@](C)(CC1=O)O2 [2-11, (1R,4S,5R)-5-((2-chlorobenzyl)oxy)-1-isopropyl-4-methyl-7-oxabicyclo[2.2.1]heptan-2-one]
inhibition at 1200 g/ha (Lindemia pyxidaria): ≥ 80%

CC(C)[C@]12C[C@@H](OCc3c(F)cccc3F)[C@](C)(CC1=O)O2 [2-20, (1R,4S,5R)-5-((2,6-difluorobenzyl)oxy)-1-isopropyl-4-methyl-7-oxabicyclo[2.2.1]heptan-2-one]
inhibition at 1200 g/ha (Lindemia pyxidaria): ≥ 80%

C=C1C[C@]2(C)O[C@@]1(C(C)C)C[C@H]2OCc1ccccc1C [2-72, (1R,4S,5R)-1-isopropyl-4-methyl-5-((2-methylbenzyl)oxy)-2-methylene-7-oxabicyclo[2.2.1]heptane]
inhibition at 1200 g/ha (Lindemia pyxidaria): ≥ 80%

C=C1C[C@]2(C)O[C@@]1(C(C)C)C[C@H]2OCc1ccccc1F [2-88, (1R,4S,5R)-5-((2-fluorobenzyl)oxy)-1-isopropyl-4-methyl-2-methylene-7-oxabicyclo[2.2.1]heptane]
inhibition at 1200 g/ha (Lindemia pyxidaria): ≥ 80%

CC(C)[C@]12C[C@@H](OCc3ccc(F)cc3)[C@](C)(CC1=O)O2 [2-349, (1R,4S,5R)-5-((4-fluorobenzyl)oxy)-1-isopropyl-4-methyl-7-oxabicyclo[2.2.1]heptan-2-one]
inhibition at 1200 g/ha (Lindemia pyxidaria): ≥ 80%

CC(C)[C@]12C[C@@H](OCc3cccc(F)c3)[C@](C)(CC1=O)O2 [2-351, (1R,4S,5R)-5-((3-fluorobenzyl)oxy)-1-isopropyl-4-methyl-7-oxabicyclo[2.2.1]heptan-2-one]
inhibition at 1200 g/ha (Lindemia pyxidaria): ≥ 80%

Cc1cccc(CO[C@@H]2C[C@]3(C(C)C)O[C@@]2(C)CC3=O)c1 [2-352, (1R,4S,5R)-1-isopropyl-4-methyl-5-((3-methylbenzyl)oxy)-7-oxabicyclo[2.2.1]heptan-2-one]
inhibition at 1200 g/ha (Lindemia pyxidaria): ≥ 80%

CC(C)[C@]12C=C[C@](C)(O1)[C@H](OCc1ccccc1F)C2 [3-5, (1R,4S,5R)-5-[(2-fluorophenyl)methoxy]-4-methyl-1-isopropyl-7-oxabicyclo[2.2.1]hept-2-ene]
inhibition at 1200 g/ha (Lindemia pyxidaria): ≥ 80%
